Measurements: ChEMBL document CHEMBL5614441, “Anticancer potential of active alkaloids and synthetic analogs derived from marine invertebrates” (Eur J Med Chem, 2024)

Columns and labels:
MCF7 [1] = assay: Cytotoxicity against human MCF7 cells assessed as cell killing by SRB colorimetric assay; assay type: functional, cell-based
MDA-MB-231 [2] = assay: Cytotoxicity against human MDA-MB-231 cells assessed as cell growth inhibition incubated for 72 hrs by alamarblue staining based assay; assay type: functional; details: MDA-MB-231, 72 h
MCF7 [3] = assay: Cytotoxicity against human MCF7 cells assessed as cell viability measured after 48 hrs by MTT cell proliferation assay; assay type: functional, cell-based; details: MCF7, 48 h
[4] = molecular target: Hepatocyte growth factor receptor (Homo sapiens, UniProt P08581); assay: Inhibition of c-Met phosphorylation in human BT-474 cells using Z-LYTE Tyr6 peptide substrate measured after 1 hr incubation by Z-LYTE c-Met Kinase assay; assay type: cell-based
Sequence of Hepatocyte growth factor receptor (P08581 whole entry): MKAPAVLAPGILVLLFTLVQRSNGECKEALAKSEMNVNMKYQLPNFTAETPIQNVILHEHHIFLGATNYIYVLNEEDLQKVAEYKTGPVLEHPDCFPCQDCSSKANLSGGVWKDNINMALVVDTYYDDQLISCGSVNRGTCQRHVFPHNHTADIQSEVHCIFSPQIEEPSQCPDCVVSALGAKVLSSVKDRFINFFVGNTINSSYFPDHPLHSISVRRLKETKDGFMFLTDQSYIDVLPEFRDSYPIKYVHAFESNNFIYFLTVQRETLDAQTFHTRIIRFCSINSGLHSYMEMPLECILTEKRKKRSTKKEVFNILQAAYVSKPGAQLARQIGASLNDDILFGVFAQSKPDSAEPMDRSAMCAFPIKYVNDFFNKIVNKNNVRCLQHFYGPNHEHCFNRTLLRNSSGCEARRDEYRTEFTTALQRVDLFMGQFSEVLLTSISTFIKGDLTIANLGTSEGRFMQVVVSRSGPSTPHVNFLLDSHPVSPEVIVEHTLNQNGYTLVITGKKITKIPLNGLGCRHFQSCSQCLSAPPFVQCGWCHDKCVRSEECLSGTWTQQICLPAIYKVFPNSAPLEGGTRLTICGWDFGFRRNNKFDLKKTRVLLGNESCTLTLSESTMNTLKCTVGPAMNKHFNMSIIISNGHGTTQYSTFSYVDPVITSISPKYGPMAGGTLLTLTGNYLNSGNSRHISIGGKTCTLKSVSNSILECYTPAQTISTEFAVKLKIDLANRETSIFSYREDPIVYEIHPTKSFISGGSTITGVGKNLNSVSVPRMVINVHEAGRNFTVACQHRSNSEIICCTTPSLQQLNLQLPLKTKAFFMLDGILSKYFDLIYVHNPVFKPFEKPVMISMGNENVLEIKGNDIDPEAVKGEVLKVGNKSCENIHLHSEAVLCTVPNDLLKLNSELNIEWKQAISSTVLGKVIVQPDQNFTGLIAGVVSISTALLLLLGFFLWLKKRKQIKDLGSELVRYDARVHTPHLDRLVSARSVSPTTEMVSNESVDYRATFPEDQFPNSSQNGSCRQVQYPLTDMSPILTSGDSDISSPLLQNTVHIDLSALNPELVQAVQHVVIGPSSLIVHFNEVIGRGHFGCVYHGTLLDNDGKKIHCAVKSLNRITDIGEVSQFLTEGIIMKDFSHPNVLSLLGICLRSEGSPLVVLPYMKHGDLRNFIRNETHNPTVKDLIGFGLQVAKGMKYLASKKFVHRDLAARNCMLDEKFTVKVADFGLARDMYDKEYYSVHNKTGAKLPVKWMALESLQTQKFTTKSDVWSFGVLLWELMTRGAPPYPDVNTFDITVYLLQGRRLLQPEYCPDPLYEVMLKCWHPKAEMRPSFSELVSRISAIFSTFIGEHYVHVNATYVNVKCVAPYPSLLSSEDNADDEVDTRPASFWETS

BT-474 = assay: Anticancer activity against human BT-474 cells assessed as cell viability measured after 48 hrs by MTT assay; assay type: functional, cell-based; details: BT-474, 48 h
NCI-H460 = assay: Cytotoxicity against human NCI-H460 cells; assay type: functional, cell-based
NCI-H292 = assay: Cytotoxicity against human NCI-H292 cells; assay type: functional, cell-based
[5] = Cytotoxicity against p53-/- transgenic mouse derived T11 cells assessed as cell viability measured after 48 hrs by Cell Titer Glo assay; assay type: functional, cell-based; details: T11, 48 h
MDA-MB-231 [6] = assay: Cytotoxicity against human MDA-MB-231 cells measured after 24 to 72 hrs by MTT cell proliferation assay; assay type: functional, cell-based
PC-3 [7] = assay: Cytotoxicity against human PC-3 cells assessed as cell viability measured after 24 hrs incubation followed by incubated 3 hrs with MTS reagent by MTS assay; assay type: functional, cell-based
CWR22R [8] = assay: Cytotoxicity against human 22Rv1 cells assessed as cell viability measured after 24 hrs incubation followed by incubated 3 hrs with MTS reagent by MTS assay; assay type: functional, cell-based
MDA-MB-231 [9] = assay: Cytotoxicity against human MDA-MB-231 cells assessed as cell viability measured after 48 hrs by MTT assay; assay type: functional, cell-based; details: MDA-MB-231, 48 h
SW-620 = assay: Cytotoxicity against human SW620 cells assessed as cell growth measured after 24 hrs incubation by Sulforhodamine B (SRB) assay; assay type: functional, cell-based; details: SW-620, 24 h
SW480 = assay: Cytotoxicity against human SW480 cells assessed as cell growth measured after 24 hrs incubation by Sulforhodamine B (SRB) assay; assay type: functional, cell-based; details: SW480, 24 h
A549 = assay: Cytotoxicity against human A549 cells assessed as cell viability measured after 24 hrs incubation by MTT assay; assay type: functional, cell-based; details: A549, 24 h
HCT-116 = assay: Antiproliferative activity against human HCT116 cells assessed as inhibition of cell proliferation measured after 2 to 4 hrs incubation by MTT assay; assay type: functional, cell-based
CWR22R [10] = assay: Cytotoxicity against human 22Rv1 cells assessed as cell viability measured after 48 hrs incubation by MTT assay; assay type: functional, cell-based; details: 22Rv1, 48 h
PC-3 [11] = assay: Antiproliferative activity against human PC-3 cells assessed as inhibition of cell proliferation measured after 2 to 4 hrs incubation by MTT assay; assay type: functional, cell-based
DU-145 = assay: Antiproliferative activity against human DU-145 cells assessed as inhibition of cell proliferation measured after 2 to 4 hrs incubation by MTT assay; assay type: functional, cell-based

O=C(Cc1c[nH]c2ccccc12)N/N=C1\C(=O)Nc2ccc([N+](=O)[O-])cc21
IC50 (MCF7 [1]): 0.44 µM

N=C(N)NCCCCNC(=O)[C@@]1(O)[C@H](Cc2c[nH]c3cc(Br)ccc23)[C@@](O)(Cc2c[nH]c3cc(Br)ccc23)C(=O)N1CCCCNC(=N)N [EUSYNSTYELAMIDE B]
IC50 (MDA-MB-231 [2]): 5 µM

Cn1c2ccccc2c2cc(C3=NCCc4c3[nH]c3ccccc43)ccc21
IC50 (MCF7 [3]): 5.48 µM

[O-][N+]12CCC[C@]3(O)CCCCCC[C@H]4CCN5CCC[C@@H](CCCCCC[C@@H](CC1)O[C@@H]32)[C@@H]5O4 (some centres not stated)
IC50 [4]: 19.9 µM | IC50 (BT-474): 15.2 µM

C/C=C(/C)C(=O)OC[C@H]1c2c(O)c(OC)c(C)c(OC(=O)/C=C/c3ccccc3)c2C[C@H]2[C@H]3C4=C(C[C@@H]([C@H](C#N)N12)N3C)C(=O)C(C)=C(OC)C4=O
IC50 (NCI-H460): 14.6 µM | IC50 (NCI-H292): 14.6 µM

CC[C@H]1C=CCC[C@@]2(C[C@@H]3CC[C@@H]4[C@H](C(=O)OCCCCCCCCCCCCCCCC(=O)N(CCCN)C[C@@H](O)CCN)[C@]5(CCC[C@@H](C)O5)NC(=N2)N34)O1
IC50 [5]: 0.09 µM

COc1cc2ccnc3c2c(c1O)N(C)C=C3 [ISOAAPTAMINE]
IC50 (MDA-MB-231 [6]): 30.1 µM

O=C1c2ccc(Br)cc2-[n+]2ccc3c([nH]c4cc(Br)ccc43)c21
IC50 (PC-3 [7]): 7.28 µM | IC50 (CWR22R [8]): 0.69 µM

O=C1c2cccc(Cl)c2-[n+]2ccc3c([nH]c4ccccc43)c21
IC50 (MDA-MB-231 [9]): 0.3 µM

CN1C(=O)/C(=N\NC(=O)Cc2c[nH]c3ccccc23)c2ccccc21
IC50 (MCF7 [1]): 1.28 µM

Cn1ccc2c(c1=O)C(=O)c1nccc3c1c-2nc1ccccc13 [NEOAMPHIMIDINE]
IC50 (SW-620): 0.06 µM | IC50 (SW480): 0.006 µM

C/C=C(/C)C(=O)OC[C@H]1c2c(c(O)c(C)c3c2OCO3)C[C@H]2[C@H]3C4=C(C[C@@H]([C@H](C#N)N12)N3C)C(=O)C(C)=C(OC)C4=O
IC50 (A549): 25 µM

CC[C@@H]1CCCC[C@]2(C[C@H]3CC[C@@]4(O)[C@@H](C(=O)OCCCCCCCCCCCCCCCCC(=O)N(CCCN)C[C@@H](O)CCN)[C@@]5(CCC[C@H](C)O5)N=C(N2)N34)O1
IC50 (HCT-116): 4 µM

CCC/C=C\CC[C@@H](O)C[C@H]1CCC2=C(C(=O)OCCCCN(O)C(=N)N)[C@H](CC/C=C\CCC)NC(N)=[N+]21
IC50 (CWR22R [10]): 5 µM

CC[C@@H]1C=CCC[C@]2(C[C@H]3CC[C@@]4(O)[C@@H](C(=O)OCCCCCCCCCCCCCCCC(=O)N(CCCN)C[C@@H](O)CCN)[C@@]5(CCC[C@H](C)O5)N=C(N2)N34)O1
IC50 (HCT-116): 4.7 µM

COC1=C(Br)[C@H](O)[C@](O)(CC#N)C=C1Br
IC50 (PC-3 [11]): 0.12 µM | IC50 (DU-145): 0.54 µM

CCC/C=C\CC[C@@H](O)C[C@H]1CCC2=C(C(=O)OCCCCN(O)C(=N)N)[C@H](CC/C=C\CCC)NC(=N)N21
IC50 (CWR22R [10]): 5 µM
